We go through 12 compounds from patent US9796741B2 (Achillion Pharmaceuticals, Inc., priority 2014, dated 2017).

Where only a bound is given, the exact number is not on record here.

Chain of Human factor D (P00746 26-253): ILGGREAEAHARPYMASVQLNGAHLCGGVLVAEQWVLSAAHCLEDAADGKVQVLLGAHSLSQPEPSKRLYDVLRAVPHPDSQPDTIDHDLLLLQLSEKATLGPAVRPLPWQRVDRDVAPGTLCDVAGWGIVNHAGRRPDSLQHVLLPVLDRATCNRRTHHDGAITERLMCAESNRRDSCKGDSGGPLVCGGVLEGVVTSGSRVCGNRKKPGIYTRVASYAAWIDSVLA

This assay addresses Human factor D (Homo sapiens (Human), UniProt P00746). The assay can be described thus: Human Factor D Assay. The class given is biochemical. Particulars: human factor D 80 nM, substrate Z-L-Lys-SBzl, DTNB. As for the experimental part: Human factor D (purified from human serum, Complement Technology, Inc.) at 80 nM final concentration is incubated with test compound at various concentrations for 5 minutes at room temperature in 50 mM Tris, 1M NaCl, pH 7.5. A synthetic substrate Z-L-Lys-SBzl and DTNB (Ellman's reagent) are added to final concentrations of 100 μM each. The increase in color is recorded at OD405 nm in a microplate in kinetic mode over 30 minutes with 30 second time points in a spectrofluorimeter. IC50 values are calculated by non-linear regression from the percentage of inhibition of complement factor D activity as a function of test compound concentration.
As to `NC(=O)c1nn(CC(=O)N2C[C@H](F)C[C@H]2C(=O)Nc2cccc(-c3ccccc3Cl)c2F)c2ccc(-c3cn[nH]c3)cc12` [Compound 1], the half-maximal inhibitory concentration (IC50) (usually the concentration that inhibits the measured activity by half) was under 1000 nM.
The figure for `NC(=O)c1nn(CC(=O)N2C[C@H](F)C[C@H]2C(=O)Nc2cccc(-c3ccccc3Cl)c2F)c2ccc(-c3cncnc3)cc12` [Compound 2] is under 1000 nM; for `NC(=O)c1nn(CC(=O)N2C[C@H](F)C[C@H]2C(=O)Nc2cccc(Br)n2)c2ccc(-c3ccc(N4CCOCC4)cc3)cc12` [Compound 3, 1-(2-((2S,4R)-2-((6-Bromopyridin-2-yl)carbamoyl)-4-fluoropyrrolidin-1-yl)-2-oxoethyl)-5-(4-morphlinophenyl)-1H-indazole-3-carboxamide] it is under 1000 nM; for `NC(=O)c1nn(CC(=O)N2[C@@H]3C[C@@H]3C[C@H]2C(=O)Nc2cccc(Br)n2)c2ccc(-c3cncnc3)cc12` [Compound 4] it is under 1000 nM.
In turn, `NC(=O)c1nn(CC(=O)N2C[C@H](F)C[C@H]2C(=O)Nc2cccc(Br)n2)c2ccc(-c3cncnc3)cc12` [Compound 5, 1-(2-((2S,4R)-2-(6-bromopyridin-2-ylcarbamoyl)-4-fluoropyrrolidin-1-yl)-2-oxoethyl)-5-(pyrimidin-5-yl)-1H-indazole-3-carboxamide] showed an IC50 of under 1000 nM.
`NC(=O)c1nn(CC(=O)N2[C@@H]3C[C@@H]3C[C@H]2C(=O)Nc2cccc(-c3ccccc3Cl)c2F)c2ccc(-c3cncnc3)cc12` [Compound 6, 1-(2-((1R,3S,5R)-3-(2′-chloro-2-fluorobiphenyl-3-ylcarbamoyl)-2-azabicyclo[3.1.0]hexan-2-yl)-2-oxoethyl)-5-(pyrimidin-5-yl)-1H-indazole-3-carboxamide] registered an IC50 of under 1000 nM.
The figure for `NC(=O)c1nn(CC(=O)N2[C@@H]3C[C@@H]3C[C@H]2C(=O)Nc2cccc(-c3ccccc3Cl)c2F)c2ccc(-c3ncccn3)cc12` [Compound 7, 1-(2-((1R,3S,5R)-3-(2′-chloro-2-fluorobiphenyl-3-ylcarbamoyl)-2-azabicyclo[3.1.0]hexan-2-yl)-2-oxoethyl)-5-(pyrimidin-2-yl)-1H-indazole-3-carboxamide] is under 1000 nM; for `NC(=O)c1nn(CC(=O)N2[C@@H]3C[C@@H]3C[C@H]2C(=O)Nc2cccc(OC(F)(F)F)c2F)c2ccc(-c3cncnc3)cc12` [Compound 8, 1-(2-((1R,3S,5R)-3-(2-fluoro-3-(trifluoromethoxy)phenylcarbamoyl)-2-azabicyclo[3.1.0]hexan-2-yl)-2-oxoethyl)-5-(pyrimidin-5-yl)-1H-indazole-3-carboxamide] it is under 1000 nM.
Turning to `NC(=O)c1nn(CC(=O)N2C[C@H](F)C[C@H]2C(=O)Nc2cccc(OC(F)(F)F)c2F)c2ccc(-c3cncnc3)cc12` [Compound 9, 1-(2-((2S,4R)-4-fluoro-2-(2-fluoro-3-(trifluoromethoxy)phenylcarbamoyl)pyrrolidin-1-yl)-2-oxoethyl)-5-(pyrimidin-5-yl)-1H-indazole-3-carboxamide], the IC50 is under 1000 nM.
Then `NC(=O)c1nn(CC(=O)N2C[C@H](F)C[C@H]2C(=O)Nc2cccc(-c3ccccc3Cl)c2F)c2ccc(-c3cnc(N4CCCC4)nc3)cc12` [Compound 10], with under 1000 nM; and `NC(=O)c1nn(CC(=O)N2[C@@H]3C[C@@H]3C[C@H]2C(=O)Nc2cccc(Br)n2)c2ccc(-c3cnc(N4CCCC4)nc3)cc12` [Compound 11], with under 1000 nM.
`NC(=O)c1nn(CC(=O)N2C[C@H](F)C[C@H]2C(=O)Nc2cccc(-c3ccccc3Cl)c2F)c2ccc(-c3ccc(F)nc3)cc12` [Compound 12, 1-(2-((2S,4R)-2-((2′-Chloro-2-fluoro-[1,1′-biphenyl]-3-yl)carbamoyl)-4-fluoropyrrolidin-1-yl)-2-oxoethyl)-5-(6-fluoropyridin-3-yl)-1H-indazole-3-carboxamide] registered an IC50 of under 1000 nM.
